Experiments:
USP11 [1] = molecular target: T1, USP11 (Homo sapiens, UniProt P51784); assay: bio-layer interferometry (Octet), biotinylated protein on SSA sensors, […] global fit; format: binding; conditions: PBS-T, 30 °C; RSL3 6.81-218 μM; unreliable (KD above the highest concentration tested); protein refolded from 8 M urea
T1 construct: biotin-labelled for BLI

USP11 [2] = molecular target: T2, USP11 (Homo sapiens, UniProt P51784, Q402E/Y833E); assay: as above; format: binding
T2 construct: biotin-labelled for BLI
T2 sequence (P51784 whole entry Q402E/Y833E): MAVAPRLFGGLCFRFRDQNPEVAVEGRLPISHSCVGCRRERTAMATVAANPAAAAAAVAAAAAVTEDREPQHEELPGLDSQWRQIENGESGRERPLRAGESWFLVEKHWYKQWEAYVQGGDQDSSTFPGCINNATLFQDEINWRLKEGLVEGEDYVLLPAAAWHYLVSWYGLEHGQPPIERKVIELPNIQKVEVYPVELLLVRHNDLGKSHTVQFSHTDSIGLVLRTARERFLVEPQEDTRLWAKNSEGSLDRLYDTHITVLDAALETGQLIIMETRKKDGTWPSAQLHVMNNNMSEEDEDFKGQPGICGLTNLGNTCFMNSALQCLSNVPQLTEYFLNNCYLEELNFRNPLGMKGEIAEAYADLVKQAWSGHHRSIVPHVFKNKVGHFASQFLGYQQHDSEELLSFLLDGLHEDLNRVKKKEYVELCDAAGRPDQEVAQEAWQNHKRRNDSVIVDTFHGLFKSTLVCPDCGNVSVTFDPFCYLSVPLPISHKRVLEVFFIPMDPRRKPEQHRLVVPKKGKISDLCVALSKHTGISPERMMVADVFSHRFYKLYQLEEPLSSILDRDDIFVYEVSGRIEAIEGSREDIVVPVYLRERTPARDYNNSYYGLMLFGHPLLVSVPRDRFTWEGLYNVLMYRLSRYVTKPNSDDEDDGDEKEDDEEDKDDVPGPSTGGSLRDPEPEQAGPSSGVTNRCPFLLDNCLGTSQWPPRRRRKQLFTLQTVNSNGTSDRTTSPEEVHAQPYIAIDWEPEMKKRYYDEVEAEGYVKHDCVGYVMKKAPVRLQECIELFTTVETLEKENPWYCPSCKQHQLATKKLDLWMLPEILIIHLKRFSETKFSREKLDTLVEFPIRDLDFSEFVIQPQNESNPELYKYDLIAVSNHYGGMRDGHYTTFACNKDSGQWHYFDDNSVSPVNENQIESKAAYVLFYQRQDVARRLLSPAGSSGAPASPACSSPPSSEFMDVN

T1 sequence (P51784 whole entry): as the sequence (P51784 whole entry Q402E/Y833E) above, with E402Q, E833Y counted along it

KD (USP11 [1]): 340 µM
Kd (USP11 [2]): 190 µM
Structure (SMILES): COC(=O)c1ccc([C@H]2c3[nH]c4ccccc4c3C[C@H](C(=O)OC)N2C(=O)CCl)cc1 [RSL3]

Reference: publication PMC9658295, “The RSL3 Induction of KLK Lung Adenocarcinoma Cell Ferroptosis by Inhibition of USP11 Activity and the NRF2-GSH Axis” (Cancers, 2022)
